Results: article PMC5874699, “Antimicrobial and Antibiofilm Activity of UP-5, an Ultrashort Antimicrobial Peptide Designed Using Only Arginine and Biphenylalanine” (Pharmaceuticals, 2018)
Square brackets hold non-standard residues; d marks the D form. Peptide text beside a SMILES is read from it. Bip = N[C@@H](Cc1ccc(-c2ccccc2)cc1)C(=O)O

Tests used:
[1] = tested on: P. aeruginosa (ATCC BAA-2114); assay type: cell-based, Pseudomonas aeruginosa; conditions: ATCC BAA-2114, 24 h
Description: (§1) All bacterial susceptibility, biofilm, and synergistic assays of peptides, antibiotics, and peptides-antibiotics combinations used bacterial strains obtained from the American Type Tissue Culture Collection (ATCC, Manassas, VA, USA) that states the mechanism of resistance for each strain according to ATCC number. Gram-positive bacteria were represented by five strains, the wild type strain Staphylococcus aureus (ATCC 29213) and methicillin-resistant S. aureus (MRSA) (ATCC 33591) in addition to clinically isolated strains S. aureus (ATCC BAA-41& 43300) and Enterococcus faecalis (ATCC BAA-2316). The Gram-negative bacteria strains were represented by wild type strains of Escherichia coli (ATCC 25922 & 35218) and Pseudomonas aeruginosa (ATCC 27853) as well as the clinically isolated multidrug-resistant strain P. aeruginosa (ATCC BAA-2114). The bacteria were cultured onto Muller Hinton Agar (Scharlab, S.L, Barcelona, Spain). Mueller Hinton Broth (Oxoid Ltd., Basingstoke, UK) was used to prepare all bacterial suspensions and to dissolve the peptides and the antibiotics. The assay was performed in sterile 96-well polypropylene microtiter plates.
(§2) All bacterial susceptibility assays were conducted according to the microbroth dilution method outlined by the Clinical and Laboratory Standards Institute (CLSI) guidelines.
(§3) Briefly, pre-sterilized MHB was used as a growth medium for organisms obtained from stock media with glycerol. Bacterial cells were grown overnight in MHB and diluted to 10^6 CFU/mL in the same medium prior to use. For peptide, serial concentrations in the range of 0.5–100 μM were prepared. Then, 50 μL of each peptide concentration and 50 µL of diluted bacterial suspension were added to each well of a 96-well microtiter plate. Peptide solutions were prepared by dissolving the peptide in sterile MHB. Then, the plates were incubated overnight in a humidified atmosphere, and at 37 °C. Bacterial growth was determined by measuring the optical density (OD) at λ = 600 nm using an ELISA plate reader (Epoch, BioTek, Winooski, VT, USA) and the minimum inhibitory concentration (MIC) was determined.
(§4) As described in the previous section, the MIC and MBC values of antibiotics employed in this study were determined against subjected bacterial strains via preparing different concentrations of each antibiotic.

S. aureus (ATCC 29213) = test: Broth microdilution checkerboard, UP-5 with antibiotics; assay type: cell-based, Staphylococcus aureus; conditions: S. aureus ATCC 29213, checkerboard, triplicate
Description: as §1
(§5) According to the broth microdilution checkerboard technique, the MIC and MBC values of peptide-antibiotics combinations against wild type and multidrug resistant bacterial strains were determined. Serial concentrations of peptide and each antibiotic were prepared in the range of 0.005–100 μM. In each well of a 96-well microtiter plate, 25 μL of each peptide concentration were added to 25 μL of each antibiotic concentration which is followed by adding 50 μL of diluted bacterial suspension (10^6 CFU/mL) to each well. The prepared concentrations of peptide and each antibiotic were arranged into rows and columns, respectively, in a 96-well microtiter plate according the checkerboard technique. Then as described previously (see Section 2.4.1), the procedure was followed. All MIC and MBC determinations of all assays were made in triplicate.
(§6) The fractional inhibitory concentration (FIC) is defined as the inhibitory concentration of the antimicrobial combination divided by that of the single antimicrobial component. To calculate FIC index for peptide-antibiotic combinations, the following equation was used:(1) FIC index=MIC of drug X in combination/MIC of drug X alone+MIC of drug Y in combination/MIC of drug Y alone
(§7) The FIC indices were interpreted as follows: ≤0.5: synergistic activity, 0.5–1: additive activity, 1–4 indifferent, >4: antagonism. Interpretation and assessment of the FIC indices were performed according to the broth microdilution checkerboard technique.

S. aureus (ATCC 43300) [2] = test: as above; assay type: cell-based, Staphylococcus aureus; conditions: S. aureus ATCC 43300, checkerboard, triplicate
Description: as §1, §5, §6, §7

S. aureus (ATCC BAA-41) [3] = test: as above; assay type: cell-based, Staphylococcus aureus; conditions: S. aureus ATCC BAA-41, checkerboard, triplicate
Description: as §1, §5, §6, §7

S. aureus (ATCC 33591) = test: as above; assay type: cell-based, Staphylococcus aureus; conditions: S. aureus ATCC 33591, checkerboard, triplicate
Description: as §1, §5, §6, §7

[4] = tested on: P. aeruginosa (ATCC BAA-2114); test: as above; assay type: cell-based, Pseudomonas aeruginosa; conditions: P. auroginosa ATCC BAA-2114, checkerboard, triplicate
Description: as §1, §5, §6, §7

Vero cells = assay type: cell-based; conditions: 24 h
Description: Vero cells were seeded at 5 × 10^3 cells per well in flat-bottomed 96-well plates, and the plate was incubated for 18–24 h at 37 °C under 5% CO2 to allow cell attachment on the bottom of the plates. Next day, different concentrations of the peptide were prepared as a gradient using growth medium as the diluent (150, 200, 250, 300, 400, 500, and 600 µM). The plates were incubated for 24 h at 37 °C under 5% CO2. Next, 30 μL (2.5 g/L) MTT solutions were added to all wells and the plates were incubated for 4–6 h. After incubation, the MTT-Peptide solution was removed and a 100 μL of DMSO was added to each well and mixed thoroughly by pipetting to dissolve the Formazan crystals at the bottom of the wells until a clear purple color was achieved. The plates were then placed on an ELx808™ Absorbance Microplate Reader (BioTek, Winooski, VT, USA) and the absorbance was measured at λ = 540 nm.

S. aureus (ATCC 43300) [5] = assay type: cell-based, Staphylococcus aureus; conditions: ATCC 43300, 24 h
Description: as §1, §2, §3, §4

S. aureus (ATCC BAA-41) [6] = assay type: cell-based, Staphylococcus aureus; conditions: ATCC BAA-41, 24 h
Description: as §1, §2, §3, §4

[7] = UP-5 in combination with Ampicillin
[8] = UP-5 in combination with Chloramphenicol
[9] = UP-5 in combination with Erythromycin
[10] = UP-5 in combination with Levofloxacin
[11] = UP-5 in combination with Rifampicin

MIC Value [1]: 55 µM
UP-5 MIC in Combination (S. aureus (ATCC 29213); [7]): 0.25 µM
UP-5 MIC in Combination (S. aureus (ATCC 29213); [8]): 2.5 µM
UP-5 MIC in Combination (S. aureus (ATCC 29213); [9]): 10 µM
UP-5 MIC in Combination (S. aureus (ATCC 29213); [10]): 0.125 µM
UP-5 MIC in Combination (S. aureus (ATCC 29213); [11]): 10 µM
UP-5 MIC in Combination (S. aureus (ATCC 43300) [2]; [7]): 7.5 µM
UP-5 MIC in Combination (S. aureus (ATCC 43300) [2]; [8]): 7.5 µM
UP-5 MIC in Combination (S. aureus (ATCC 43300) [2]; [9]): 7.5 µM
UP-5 MIC in Combination (S. aureus (ATCC 43300) [2]; [10]): 0.025 µM
UP-5 MIC in Combination (S. aureus (ATCC 43300) [2]; [11]): 5 µM
UP-5 MIC in Combination (S. aureus (ATCC BAA-41) [3]; [7]): 7.5 µM
UP-5 MIC in Combination (S. aureus (ATCC BAA-41) [3]; [8]): 7.5 µM
UP-5 MIC in Combination (S. aureus (ATCC BAA-41) [3]; [9]): 15 µM
UP-5 MIC in Combination (S. aureus (ATCC BAA-41) [3]; [10]): 15 µM
UP-5 MIC in Combination (S. aureus (ATCC BAA-41) [3]; [11]): 15 µM
UP-5 MIC in Combination (S. aureus (ATCC 33591); [7]): 1.25 µM
UP-5 MIC in Combination (S. aureus (ATCC 33591); [8]): 5 µM
UP-5 MIC in Combination (S. aureus (ATCC 33591); [9]): 0.125 µM
UP-5 MIC in Combination (S. aureus (ATCC 33591); [10]): 0.125 µM
UP-5 MIC in Combination (S. aureus (ATCC 33591); [11]): 0.125 µM
UP-5 MIC in Combination [4, 7]: 20 µM
UP-5 MIC in Combination [4, 8]: 10 µM
UP-5 MIC in Combination [4, 9]: 27.5 µM
UP-5 MIC in Combination [4, 10]: 20 µM
UP-5 MIC in Combination [4, 11]: 25 µM
MIC Value (S. aureus (ATCC 43300) [5]): 15 µM
MIC Value (S. aureus (ATCC BAA-41) [6]): 15 µM
Compound: N=C(N)NCCC[C@H](NC(=O)[C@H](Cc1ccc(-c2ccccc2)cc1)NC(=O)[C@H](CCCNC(=N)N)NC(=O)[C@H](Cc1ccc(-c2ccccc2)cc1)NC(=O)[C@@H](N)CCCNC(=N)N)C(=O)O [UP-5] (H-R[Bip]R[Bip]R-OH)
MBC Value [1]: 55 µM
IC50 (Vero cells): > 250 µM
MBC Value (S. aureus (ATCC 43300) [5]): 15 µM
MBC Value (S. aureus (ATCC BAA-41) [6]): 15 µM
